Tests used:
CALR wild-type cell line = assay: 72 h dose response of hematoxylin, analogues and control compounds; format: cell-based; conditions: 72 h assay; read-out: IC50 in wild-type cell line
Description: Ba/F3 and UT-7-TPO were plated 5.000 cells/well and 16.000 cells/well into 96-well plates with the desirable concentrations of compounds or cytokines added to a total volume of 100 ul. 72 hours later, the CellTiter-Glo luminescent Cell Viability Assay (Promega) was used to determine the cell viability. The luminescent signal was detected by a VICTOR Multilabel Plate Reader (PerkinElmer). Dose response data was analyzed by Graphpad Prism 7.0.
To further explore the chemical space of the compound, a few hematoxylin analogues were also tested (FIGS. 15 to 17). […] The compounds Protosappanin B (A-4) and RJ002 (B-2) were also tested. […] As a comparison, the clinically used chemotherapeutic drugs hydroxyurea and ruxolitinib were also tested in the cell models.

[1] = test system: CALR KO Ba/F3-MPL cell lines; assay: hematoxylin sensitivity of CALR knockout cell lines; format: cell-based, mouse; conditions: CALR KO vs CALR WT clones
Description: In order to further confirm the selective cytotoxicity of hematoxylin in CALR mutant cells, two-color competition assays were performed in both Ba/F3 and UT-7-TPO cells to assess the long-term efficacy of the compound (FIG. 9). […] The differential killing effect of hematoxylin could also be reproduced in the UT-7-TPO cell line. […] This reading frame encounters a stop codon shortly after the mutation and causes a truncation at the CALR C-terminus (FIG. 12). […] Moreover, CALR KO Ba/F3-MPL cell lines were tested for hematoxylin sensitivity.

mutant calreticulin [2] = molecular target: T1, mutant calreticulin (Mus musculus, UniProt P14211); assay: Western blot analysis of Ba/F3-MPL cell lines; format: cell-based; conditions: time-course
T1 construct: endogenous in cells; host or cells: Ba/F3-MPL CALR WT/del79 (heterozygous) and CALR del37/del37 (homozygous) cell lines and their hematoxylin-resistant clones
T1 sequence (P14211 with tags, fused parts or gaps, stated change not applied): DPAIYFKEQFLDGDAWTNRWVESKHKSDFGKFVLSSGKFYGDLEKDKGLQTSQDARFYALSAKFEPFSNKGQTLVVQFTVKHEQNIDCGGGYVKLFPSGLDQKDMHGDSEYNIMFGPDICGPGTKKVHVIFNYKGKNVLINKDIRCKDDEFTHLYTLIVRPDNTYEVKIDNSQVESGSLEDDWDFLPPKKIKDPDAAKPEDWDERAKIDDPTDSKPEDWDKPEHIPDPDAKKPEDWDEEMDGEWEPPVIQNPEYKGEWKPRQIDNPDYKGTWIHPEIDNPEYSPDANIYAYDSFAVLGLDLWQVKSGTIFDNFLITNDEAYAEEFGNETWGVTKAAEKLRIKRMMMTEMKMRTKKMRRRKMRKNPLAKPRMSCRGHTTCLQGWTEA
Description: (§1) 2 million Ba/F3-MPL CALR WT or mutant cells were treated with hematoxylin or the equivalent volume of DMSO in a total volume of 15 ml of RPMI media in T75 flasks (Thermal Fisher Scientific). Cells were collected and washed with PBS before being lysed in whole cell lysis buffer containing 20 mM HEPES, 20% glycerol, 50 mM KCl, 400 mM NaCl, 1 mM EDTA, 1 mM DTT, 5 mM Na orthovanadate, 0.5% NP40, 0.1% Tween 20, supplemented with cOmplete™, Mini, EDTA-free Protease Inhibitor Cocktail (Sigma) and PhosSTOP™ (Sigma). Samples were rotated at 4° C. for 20 min prior to centrifugation at […] for 20 min. The soluble fraction of the sample was collected. Protein concentration was quantified by the Bio-Rad Protein Assay (Bio-Rad) according to the manufacturer's instructions and measured by a SpectraMax Microplate Reader (Molecular Devices). Equal amounts of protein were loaded for 8% or 10% SDS-polyacrylamide gel electrophoresis prior to transfer to Amersham™ Protran® nitrocellulose membranes at 35V, 4° C. overnight. Membranes were then blocked by 5% bovine serum albumin fraction V (Sigma) or milk. Mutant calreticulin was detected by a polyclonal rabbit antibody against the mutant specific C-terminal peptide (Myelopro). The other primary antibodies used were as follows: Calregulin Antibody (F-4)(sc-373863 Santa Cruz), Anti-HSC70(B-6) (J2212, Santa Cruz), Anti-Stat5 (N20)(L1112, Santa Cruz), anti-pYSTAT5 (Tyr694)(71-6900, Life Technologies), anti-TPOR/cMpl (#6944, Millipore), Cleaved PARP (Asp214) (#9548, Cell Signaling). HRP-linked anti-mouse and anti-rabbit antibodies (NA931/4, GE Healthcare Life Sciences) were used as secondary antibodies. Clarity™ Western ECL Blotting Substrates (Biorad) were used for the chemiluminescence detection method.
(§2) To confirm that the cytotoxic selectivity of hematoxylin in CALR mutant cell lines is due to a specific effect on mutant calreticulin, Ba/F3-MPL CALR WT and mutant cell lines were treated with the compound for 24 hours. […]

mutant calreticulin [3] = assay: Western blot analysis of Ba/F3-MPL cell lines; format: cell-based, mouse; conditions: 20 uM, 24 hours, heterozygous and homozygous mutant cell lines
Description: as §1, §2

wild-type CALR protein = wild-type CALR protein (Homo sapiens, UniProt P27797); assay: binding assay (data not shown)
wild-type CALR protein, sequence (P27797 18-417): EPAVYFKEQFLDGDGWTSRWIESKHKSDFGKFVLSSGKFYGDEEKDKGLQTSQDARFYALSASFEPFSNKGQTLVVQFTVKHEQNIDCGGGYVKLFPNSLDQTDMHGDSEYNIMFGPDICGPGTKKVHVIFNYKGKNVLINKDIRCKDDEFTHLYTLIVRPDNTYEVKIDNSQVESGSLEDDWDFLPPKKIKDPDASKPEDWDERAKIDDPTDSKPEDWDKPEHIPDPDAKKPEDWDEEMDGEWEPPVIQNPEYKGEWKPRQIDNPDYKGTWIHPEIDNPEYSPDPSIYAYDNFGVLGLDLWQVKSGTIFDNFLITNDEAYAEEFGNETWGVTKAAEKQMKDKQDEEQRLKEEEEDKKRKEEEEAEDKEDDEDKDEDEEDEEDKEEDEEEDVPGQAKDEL

[4] = test system: hematoxylin-resistant Ba/F3-MPL CALR mutant cell lines; assay: dose response test in hematoxylin-resistant cell lines; format: cell-based, mouse; conditions: lines selected under 20 uM hematoxylin for 4 weeks
Description: FIG. 21: Dose response of hematoxylin in Ba/F3-MPL resistant cell lines. Ba/F3-MPL CALR del79/WT and Ba/F3-MPL CALR del37/del37 were cultured with hematoxylin at a concentration of 20 uM for 4 weeks. CALR del79/WT resistant clone 1 and CALR del37/del37 resistant clone were cultured without cytokine. CALR del79/WT resistant clone 2 were cultured with 5% TPO.
(§3) Ba/F3-MPL CALR del79/WT and CALR del37/del37 cell lines were cultured with 20 uM of hematoxylin with or without 5% TPO continuously for 4 weeks. The cells were passaged every 3 days and seeded at 0.5 million per well in 6-well plates with addition of fresh hematoxylin and cytokine.

mutant calreticulin [5] = assay: Western blot analysis of hematoxylin-resistant clones; format: cell-based, mouse; conditions: 24 h treatment
Description: FIG. 22: Western blot analysis of hematoxylin resistant clones. All cells were treated for 24 h with hematoxylin before collection.
as §3
2 million Ba/F3-MPL CALR WT or mutant cells were treated with hematoxylin or the equivalent volume of DMSO in a total volume of 15 ml of RPMI media in T75 flasks (Thermal Fisher Scientific). Cells were collected and washed with PBS before being lysed in whole cell lysis buffer containing 20 mM HEPES, 20% glycerol, 50 mM KCl, 400 mM NaCl, 1 mM EDTA, 1 mM DTT, 5 mM Na orthovanadate, 0.5% NP40, 0.1% Tween 20, supplemented with cOmplete™, Mini, EDTA-free Protease Inhibitor Cocktail (Sigma) and PhosSTOP™ (Sigma). Samples were rotated at 4° C. for 20 min prior to centrifugation at […] for 20 min. The soluble fraction of the sample was collected. Protein concentration was quantified by the Bio-Rad Protein Assay (Bio-Rad) according to the manufacturer's instructions and measured by a SpectraMax Microplate Reader (Molecular Devices). […] Mutant calreticulin was detected by a polyclonal rabbit antibody against the mutant specific C-terminal peptide (Myelopro). […]

[6] = test system: CD34+ cells from CALR mutated patients; assay: colony formation assay; format: cell-based, human; conditions: 40 uM hematoxylin vs DMSO
Description: CD34-positive cells from healthy controls and CALR mutant patients were isolated by EasySep™ Human CD34 Positive Selection Kit (#18056; [sequence] Technologies) according to the manufacturer's instructions. StemSpan™ SFEM II (#09655 or #17856; [sequence] Technologies) supplemented with 1× StemSpan™ CD34+ Expansion Supplement (#02691; [sequence] Technologies) was used to culture and expand the isolated CD34-positive cells, preferably for no more than 8 days before experiments or storage. 1000 human CD34-positive cells were plated in 1 ml of Methocult classic medium ([sequence] Technologies, #H4434) with 40 uM hematoxylin or DMSO control. Cells were incubated for 14 days before colony counting. Statistical test was calculated using two-way ANOVA with Sidak's multiple comparisons test.

Oc1cc2c(cc1O)[C@@H]1c3ccc(O)c(O)c3OC[C@]1(O)C2 [hematoxylin, Hematoxylin]
IC50 (CALR wild-type cell line): 11.1 µM | hypersensitivity towards the treatment [1]: did not show hypersensitivity | mutant calreticulin and MPL protein level (mutant calreticulin [2]; 8-hour time point): more drastic reduction | time to start of decrease of mutant calreticulin and MPL (mutant calreticulin [2]; Ba/F3-MPL CALR WT/del79): 4 h | mutant calreticulin protein level (mutant calreticulin [3]): striking down-regulation | binding to wild-type CALR protein (wild-type CALR protein): bound | viability of resistant cell lines in response to the treatment [4]: Increased viability | compound-induced down-regulation of mutant calreticulin in resistant cell lines (mutant calreticulin [5]): resistance towards the compound-induced down-regulation | number of colony forming units [6]: significantly reduced

— patent US12410185B2, “Compounds targeting mutant calreticulin” (MYELOPRO DIAGNOSTICS AND RESEARCH GmbH, priority 2018, dated 2025)
